From patent US12723063B2, “GIPR-agonist compounds” (Eli Lilly and Company, priority 2019, dated 2026)
pKi: −log10 of the molar value. *1 amine or outer side, *2 acyl side, *3 side chain or, on linkers, in order; H or OH if unused. Where a SMILES comes first, the peptide text is derived from it. Side-chain parts run from the residue outwards. [ ]: non-standard residue; d: D form. The star is where a group is joined. C18 diacid = O=C(O)CCCCCCCCCCCCCCCCC(=O)*; γGlu = O=C(O)[C@H](CCC(=O)[*:2])N[*:1]; αMeF = C[C@](N)(Cc1ccccc1)C(=O)O; 4Pal = N[C@@H](Cc1ccncc1)C(=O)O; AEEA = NCCOCCOCC(=O)O; Aib = CC(C)(N)C(=O)O

Columns and labels:
human GLP-1R = biological target: T1, human GLP-1R (Homo sapiens, UniProt P43220); experiment: [125I]-GLP-1 binding, SPA with WGA beads, 0.1% bacitracin; settings: geometric mean, read-out: hGLP1R Ki
T1 construct: expressed in transfected cells; crude membranes
Method in brief: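 Binding buffer was 25 mM HEPES pH 7.4 with 2.5 mM CaCl2, 1 mM MgCl2, 0.1% (w/v) bacitracin, 0.003% Tween-20 and EDTA-free protease inhibitors. Four-parameter regression gave IC50, converted to Ki (geometric mean, SEM, n independent days).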

human GIPR = biological target: T2, human GIPR (Homo sapiens, UniProt P48546); experiment: [125I]-GIP binding, SPA with WGA beads, 0.1% bacitracin; settings: geometric mean, read-out: hGIPR Ki
T2 construct: expressed in transfected cells; crude membranes
T2 sequence (P48546 22-466): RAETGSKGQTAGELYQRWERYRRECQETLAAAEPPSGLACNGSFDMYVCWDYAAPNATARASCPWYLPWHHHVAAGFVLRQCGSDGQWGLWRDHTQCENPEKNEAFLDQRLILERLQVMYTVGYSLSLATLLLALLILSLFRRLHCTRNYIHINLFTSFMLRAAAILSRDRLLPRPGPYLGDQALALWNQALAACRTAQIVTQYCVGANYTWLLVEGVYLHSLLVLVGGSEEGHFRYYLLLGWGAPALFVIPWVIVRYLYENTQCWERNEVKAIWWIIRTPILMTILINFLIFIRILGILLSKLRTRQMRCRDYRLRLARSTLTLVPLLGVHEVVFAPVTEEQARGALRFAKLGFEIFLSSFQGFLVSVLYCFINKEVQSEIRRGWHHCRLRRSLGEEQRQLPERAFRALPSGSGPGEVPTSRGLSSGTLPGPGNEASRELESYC
Method in brief: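 Ki values are geometric means (SEM, n independent days), derived from four-parameter nonlinear regression of IC50. Membranes came from hGIPR-expressing CHO cells.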

T1 sequence (P43220 24-463): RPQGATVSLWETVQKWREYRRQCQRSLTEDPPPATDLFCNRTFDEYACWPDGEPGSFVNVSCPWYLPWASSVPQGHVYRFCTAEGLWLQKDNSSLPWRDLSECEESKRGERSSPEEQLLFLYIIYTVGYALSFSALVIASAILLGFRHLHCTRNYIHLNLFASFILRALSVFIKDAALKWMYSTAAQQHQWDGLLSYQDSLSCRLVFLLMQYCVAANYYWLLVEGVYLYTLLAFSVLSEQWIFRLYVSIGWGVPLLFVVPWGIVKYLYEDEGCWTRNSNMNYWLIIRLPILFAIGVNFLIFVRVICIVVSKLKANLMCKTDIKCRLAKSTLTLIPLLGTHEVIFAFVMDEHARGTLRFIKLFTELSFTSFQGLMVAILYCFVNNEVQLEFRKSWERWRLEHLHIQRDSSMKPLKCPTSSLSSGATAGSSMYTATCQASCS

**Q.** With `CC[C@H](C)[C@H](NC(=O)[C@H](CO)NC(=O)[C@H](Cc1ccc(O)cc1)NC(=O)[C@H](CC(=O)O)NC(=O)[C@H](CO)NC(=O)[C@@H](NC(=O)[C@H](Cc1ccccc1)NC(=O)[C@@H](NC(=O)CNC(=O)[C@H](CCC(=O)O)NC(=O)[C@@H](C)NC(=O)[C@@H](N)Cc1ccc(O)cc1)[C@@H](C)O)[C@@H](C)CC)C(=O)N[C@@H](CC(C)C)C(=O)N[C@@H](CC(C)C)C(=O)N[C@@H](CC(=O)O)C(=O)N[C@@H](CCCCN)C(=O)N[C@@H](CCCCNC(=O)COCCOCCNC(=O)COCCOCCNC(=O)CC[C@H](NC(=O)CCCCCCCCCCCCCCCCC(=O)O)C(=O)O)C(=O)N[C@@H](C)C(=O)N[C@@H](CCC(N)=O)C(=O)NC(C)(C)C(=O)N[C@@H](CC(=O)O)C(=O)N[C@@H](Cc1ccccc1)C(=O)N[C@H](C(=O)N[C@@H](CC(N)=O)C(=O)N[C@@H](Cc1ccncc1)C(=O)N[C@@H](CC(C)C)C(=O)N[C@@H](CC(C)C)C(=O)N[C@@H](C)C(=O)N[C@@H](CCC(N)=O)C(=O)NCC(=O)N1CCC[C@H]1C(=O)N[C@@H](CO)C(=O)N[C@@H](CO)C(=O)NCC(=O)N[C@@H](C)C(=O)N1CCC[C@H]1C(=O)N1CCC[C@H]1C(=O)N1CCC[C@H]1C(=O)N[C@@H](CO)C(N)=O)C(C)C` [Example 18] (H-Y[dA]EGTFISDYSILLDKK([AEEA-AEEA-γGlu-C18 diacid])AQ[Aib]DFVN[4Pal]LLAQGPSSGAPPPS-NH2) as the molecule, how does the pKi (human GLP-1R) read?
**A.** 6.80

**Q.** What about the pKi (human GIPR) of the same molecule?
**A.** 10.48

**Q.** What does the source list for `CC[C@H](C)[C@H](NC(=O)[C@H](CO)NC(=O)[C@H](Cc1ccc(O)cc1)NC(=O)[C@H](CC(=O)O)NC(=O)[C@H](CO)NC(=O)[C@@H](NC(=O)[C@H](Cc1ccccc1)NC(=O)[C@@H](NC(=O)CNC(=O)[C@H](CCC(=O)O)NC(=O)[C@@H](C)NC(=O)[C@@H](N)Cc1ccc(O)cc1)[C@@H](C)O)[C@@H](C)CC)C(=O)N[C@@H](CC(C)C)C(=O)N[C@@H](CC(C)C)C(=O)N[C@@H](CC(=O)O)C(=O)N[C@@H](CCCCN)C(=O)N[C@@H](CCCCNC(=O)COCCOCCNC(=O)COCCOCCNC(=O)CC[C@H](NC(=O)CCCCCCCCCCCCCCCCC(=O)O)C(=O)O)C(=O)N[C@@H](C)C(=O)N[C@@H](CCC(N)=O)C(=O)NC(C)(C)C(=O)N[C@@H](CC(=O)O)C(=O)N[C@@H](Cc1ccccc1)C(=O)N[C@H](C(=O)N[C@@H](CC(N)=O)C(=O)N[C@@H](Cc1c[nH]c2ccccc12)C(=O)N[C@@H](CC(C)C)C(=O)N[C@@H](CC(C)C)C(=O)N[C@@H](C)C(=O)NCC(=O)NCC(=O)N1CCC[C@H]1C(=O)N[C@@H](CO)C(=O)N[C@@H](CO)C(=O)NCC(=O)N[C@@H](C)C(=O)N1CCC[C@H]1C(=O)N1CCC[C@H]1C(=O)N1CCC[C@H]1C(=O)N[C@@H](CO)C(N)=O)C(C)C` [Example 19] (H-Y[dA]EGTFISDYSILLDKK([AEEA-AEEA-γGlu-C18 diacid])AQ[Aib]DFVNWLLAGGPSSGAPPPS-NH2)?
**A.** pKi (human GLP-1R): 7.82; pKi (human GIPR): 10.33

**Q.** `CC[C@H](C)[C@H](NC(=O)[C@H](CO)NC(=O)[C@H](Cc1ccc(O)cc1)NC(=O)[C@H](CC(=O)O)NC(=O)[C@H](CO)NC(=O)[C@@H](NC(=O)[C@H](Cc1ccccc1)NC(=O)[C@@H](NC(=O)CNC(=O)[C@H](CCC(=O)O)NC(=O)[C@@H](C)NC(=O)[C@@H](N)Cc1ccc(O)cc1)[C@@H](C)O)[C@@H](C)CC)C(=O)N[C@@H](CC(C)C)C(=O)N[C@@H](CC(C)C)C(=O)N[C@@H](CC(=O)O)C(=O)N[C@@H](CCCCN)C(=O)N[C@@H](CCCCNC(=O)COCCOCCNC(=O)COCCOCCNC(=O)CC[C@H](NC(=O)CCCCCCCCCCCCCCCCC(=O)O)C(=O)O)C(=O)N[C@@H](C)C(=O)N[C@@H](CCC(N)=O)C(=O)NC(C)(C)C(=O)N[C@@H](CCC(=O)O)C(=O)N[C@@H](Cc1ccccc1)C(=O)N[C@H](C(=O)N[C@@H](CC(N)=O)C(=O)N[C@@H](Cc1c[nH]c2ccccc12)C(=O)N[C@@H](CC(C)C)C(=O)N[C@@H](CC(C)C)C(=O)N[C@@H](C)C(=O)N[C@@H](CCC(N)=O)C(=O)NCC(=O)N1CCC[C@H]1C(=O)N[C@@H](CO)C(=O)N[C@@H](CO)C(=O)NCC(=O)N[C@@H](C)C(=O)N1CCC[C@H]1C(=O)N1CCC[C@H]1C(=O)N1CCC[C@H]1C(=O)N[C@@H](CO)C(N)=O)C(C)C` [Example 20] (H-Y[dA]EGTFISDYSILLDKK([AEEA-AEEA-γGlu-C18 diacid])AQ[Aib]EFVNWLLAQGPSSGAPPPS-NH2) was tested. Which pKi (human GLP-1R) did it give?
**A.** 7.10

**Q.** What about the pKi (human GIPR) of the same molecule?
**A.** 10.32

**Q.** `CC[C@H](C)[C@H](NC(=O)[C@H](CO)NC(=O)[C@H](Cc1ccc(O)cc1)NC(=O)[C@H](CC(=O)O)NC(=O)[C@H](CO)NC(=O)[C@@H](NC(=O)[C@H](Cc1ccccc1)NC(=O)[C@@H](NC(=O)CNC(=O)[C@H](CCC(=O)O)NC(=O)C(C)(C)NC(=O)[C@@H](N)Cc1ccc(O)cc1)[C@@H](C)O)[C@@H](C)CC)C(=O)N[C@@H](C)C(=O)N[C@@H](CC(C)C)C(=O)N[C@@H](CC(=O)O)C(=O)N[C@@H](CCCCN)C(=O)N[C@@H](CCCCNC(=O)COCCOCCNC(=O)COCCOCCNC(=O)CC[C@H](NC(=O)CCCCCCCCCCCCCCCCC(=O)O)C(=O)O)C(=O)N[C@@H](Cc1c[nH]cn1)C(=O)N[C@@H](CCC(N)=O)C(=O)NC(C)(C)C(=O)N[C@@H](CC(=O)O)C(=O)N[C@@H](Cc1ccccc1)C(=O)N[C@H](C(=O)N[C@@H](CCC(=O)O)C(=O)N[C@@H](Cc1ccncc1)C(=O)N[C@@H](CC(C)C)C(=O)N[C@@H](CC(C)C)C(=O)N[C@@H](C)C(=O)NCC(=O)NCC(=O)N1CCC[C@H]1C(=O)N[C@@H](CO)C(=O)N[C@@H](CO)C(=O)NCC(=O)N[C@@H](C)C(=O)N1CCC[C@H]1C(=O)N1CCC[C@H]1C(=O)N1CCC[C@H]1C(=O)N[C@@H](CO)C(N)=O)C(C)C` [Example 21] (H-Y[Aib]EGTFISDYSIALDKK([AEEA-AEEA-γGlu-C18 diacid])HQ[Aib]DFVE[4Pal]LLAGGPSSGAPPPS-NH2) was tested. Which pKi (human GLP-1R) did it give?
**A.** 6.10

**Q.** And the pKi (human GIPR)?
**A.** 8.84

**Q.** What does the source list for `CC[C@H](C)[C@H](NC(=O)[C@H](CO)NC(=O)[C@H](Cc1ccc(O)cc1)NC(=O)[C@H](CC(=O)O)NC(=O)[C@H](CO)NC(=O)[C@@H](NC(=O)[C@H](Cc1ccccc1)NC(=O)[C@@H](NC(=O)CNC(=O)[C@H](CCC(=O)O)NC(=O)C(C)(C)NC(=O)[C@@H](N)Cc1ccc(O)cc1)[C@@H](C)O)[C@@H](C)CC)C(=O)N[C@@H](CC(C)C)C(=O)N[C@@H](CC(C)C)C(=O)N[C@@H](CC(=O)O)C(=O)N[C@@H](CCCCN)C(=O)N[C@@H](CCCCNC(=O)COCCOCCNC(=O)COCCOCCNC(=O)CC[C@H](NC(=O)CCCCCCCCCCCCCCCCC(=O)O)C(=O)O)C(=O)N[C@@H](Cc1c[nH]cn1)C(=O)N[C@@H](CCC(N)=O)C(=O)NC(C)(C)C(=O)N[C@@H](CC(=O)O)C(=O)N[C@@H](Cc1ccccc1)C(=O)N[C@H](C(=O)N[C@@H](CCC(=O)O)C(=O)N[C@@H](Cc1ccncc1)C(=O)N[C@@H](CC(C)C)C(=O)N[C@@H](CC(C)C)C(=O)N[C@@H](C)C(=O)NCC(=O)NCC(=O)N1CCC[C@H]1C(=O)N[C@@H](CO)C(=O)N[C@@H](CO)C(=O)NCC(=O)N[C@@H](C)C(=O)N1CCC[C@H]1C(=O)N1CCC[C@H]1C(=O)N1CCC[C@H]1C(=O)N[C@@H](CO)C(N)=O)C(C)C` [Example 22]?
**A.** pKi (human GLP-1R): 6.41; pKi (human GIPR): 9.66

**Q.** How did the pKi (human GLP-1R) turn out when `CC[C@H](C)[C@H](NC(=O)[C@H](CO)NC(=O)[C@H](Cc1ccc(O)cc1)NC(=O)[C@H](CC(=O)O)NC(=O)[C@H](CO)NC(=O)[C@@H](NC(=O)[C@](C)(Cc1ccccc1)NC(=O)[C@@H](NC(=O)CNC(=O)[C@H](CCC(=O)O)NC(=O)C(C)(C)NC(=O)[C@@H](N)Cc1ccc(O)cc1)[C@@H](C)O)[C@@H](C)CC)C(=O)N[C@@H](C)C(=O)N[C@@H](CC(C)C)C(=O)N[C@@H](CC(=O)O)C(=O)N[C@@H](CCCCN)C(=O)N[C@@H](CCCCNC(=O)COCCOCCNC(=O)COCCOCCNC(=O)CC[C@H](NC(=O)CCCCCCCCCCCCCCCCC(=O)O)C(=O)O)C(=O)N[C@@H](Cc1c[nH]cn1)C(=O)N[C@@H](CCC(N)=O)C(=O)NC(C)(C)C(=O)N[C@@H](CC(=O)O)C(=O)N[C@@H](Cc1ccccc1)C(=O)N[C@H](C(=O)N[C@@H](CCC(=O)O)C(=O)N[C@@H](Cc1ccncc1)C(=O)N[C@@H](CC(C)C)C(=O)N[C@@H](CC(C)C)C(=O)N[C@@H](C)C(=O)NCC(=O)NCC(=O)N1CCC[C@H]1C(=O)N[C@@H](CO)C(=O)N[C@@H](CO)C(=O)NCC(=O)N[C@@H](C)C(=O)N1CCC[C@H]1C(=O)N1CCC[C@H]1C(=O)N1CCC[C@H]1C(=O)N[C@@H](CO)C(N)=O)C(C)C` [Example 23] (H-Y[Aib]EGT[αMeF]ISDYSIALDKK([AEEA-AEEA-γGlu-C18 diacid])HQ[Aib]DFVE[4Pal]LLAGGPSSGAPPPS-NH2) was run?
**A.** 6.60

**Q.** What about the pKi (human GIPR) of the same molecule?
**A.** 10.47
